These results are taken from ChEMBL document CHEMBL5500363, “Discovery of novel ocotillol derivatives modulating glucocorticoid receptor/NF-κB signaling for the treatment of sepsis” (Eur J Med Chem, 2024).

A short description of data set [1]: Cytotoxicity against mouse RAW264.7 cells assessed as cell viability at 40 uM incubated for 24 hrs by MTT assay relative to control. It is filed as toxicity, cell-based. Particulars: read-out: Activity. On the technique in general: Tetrazolium assays rely on reduction of a dye to a coloured formazan, in cell work by metabolically active cells.
For data set [2], the system named is Mus musculus. Description: Anti-septic activity in LPS-induced sepsis BALB/c mouse assessed as increase in survival rate at 7.5 to 30 mg/kg administered via gavage for 3 days followed by LPS treatment for 6 hrs. It is filed as functional, organism-based. The following applies: dose 7.5-30 mg/kg, time 78.0 hrs.
In data set [3] the test system is RAW264.7. Description: Anti-inflammatory activity in LPS-treated mouse RAW264.7 cells assessed as reversal of nuclear translocation of p65 at 20 uM pretreated for 2 hrs followed by LPS stimulation for 24 hrs by immunofluorescence analysis. It is filed as functional, cell-based. The following applies: time 26.0 hrs.
Data set [4] relates to Mus musculus. Briefly: Anti-septic activity in LPS-induced sepsis BALB/c mouse assessed as reduction in lung tissue damage at 7.5 to 30 mg/kg administered via gavage for 3 days followed by LPS treatment for 6 hrs by H and E staining based analysis. The following applies: dose 7.5-30 mg/kg, time 78.0 hrs. It is filed as functional, organism-based.
Data set [5] relates to Mus musculus. Briefly: Upregulation of glucocorticoid receptor expression in liver of LPS-induced sepsis BALB/c mouse model at 7.5 to 30 mg/kg administered via gavage for 3 days followed by LPS treatment for 6 hrs by immunofluorescence analysis. It is filed as functional, organism-based. Particulars: dose 7.5-30 mg/kg, time 78.0 hrs.
The subject of data set [6] is RAW264.7. Description: Downregulation of glucocorticoid receptor in mouse RAW264.7 cells at 20 uM incubated for 24 hrs by Western blot analysis. It is filed as functional, cell-based. Background: In western blotting, separated proteins are transferred to a membrane and probed.
Data set [7] has as its target T1, Glucocorticoid receptor (Mus musculus) (UniProt P06537).
T1 sequence (whole entry): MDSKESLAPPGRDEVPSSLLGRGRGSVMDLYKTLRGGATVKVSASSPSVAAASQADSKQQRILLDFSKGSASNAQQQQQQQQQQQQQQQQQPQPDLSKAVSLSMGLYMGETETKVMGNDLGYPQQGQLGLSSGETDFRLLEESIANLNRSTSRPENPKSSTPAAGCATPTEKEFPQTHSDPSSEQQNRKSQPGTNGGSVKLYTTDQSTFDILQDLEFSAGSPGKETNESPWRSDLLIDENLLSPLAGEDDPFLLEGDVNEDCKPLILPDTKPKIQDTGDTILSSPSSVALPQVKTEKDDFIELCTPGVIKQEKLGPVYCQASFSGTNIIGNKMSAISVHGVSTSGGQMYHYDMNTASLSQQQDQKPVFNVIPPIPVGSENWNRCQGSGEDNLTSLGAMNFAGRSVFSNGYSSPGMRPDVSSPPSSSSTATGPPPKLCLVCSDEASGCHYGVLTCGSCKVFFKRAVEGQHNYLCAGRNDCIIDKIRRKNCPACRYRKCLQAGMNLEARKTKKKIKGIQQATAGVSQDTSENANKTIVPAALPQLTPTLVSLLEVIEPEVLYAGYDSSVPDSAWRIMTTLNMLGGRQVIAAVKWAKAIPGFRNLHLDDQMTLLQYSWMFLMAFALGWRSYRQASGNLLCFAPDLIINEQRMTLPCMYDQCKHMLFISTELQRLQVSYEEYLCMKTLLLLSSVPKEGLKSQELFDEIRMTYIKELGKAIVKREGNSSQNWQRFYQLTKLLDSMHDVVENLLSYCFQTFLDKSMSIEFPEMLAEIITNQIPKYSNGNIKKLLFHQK
Briefly: Binding affinity to glucocorticoid receptor in mouse RAW264.7 cells assessed as increase in thermal stability at 47 to 51 degreeC at 40 uM pretreated for 24 hrs followed by heat exposure for 3 mins and subsequently incubated at room temperature for 3 mins by CETSA. Particulars: time 1446.0 min. It is filed as cell-based.

Data set [8] concerns Mus musculus. Briefly: Anti-septic activity in LPS-induced sepsis BALB/c mouse assessed as reduction in serum IL-6 level at 7.5 to 30 mg/kg administered via gavage for 3 days followed by LPS treatment for 6 hrs by ELISA. The following applies: dose 7.5-30 mg/kg, time 78.0 hrs. It is filed as functional, organism-based. (In general: ELISA stands for enzyme-linked immunosorbent assay.)

Data set [9] concerns RAW264.7. Briefly: Inhibition of LPS-induced NO production in mouse RAW264.7 cells at 5 uM pretreated for 2 hrs followed by LPS stimulation for 24 hrs by Griess assay relative to control. It is filed as functional. The following applies: time 26 hrs.
Data set [10] relates to Mus musculus. Description: Upregulation of glucocorticoid receptor expression in liver of LPS-induced sepsis BALB/c mouse model at 7.5 to 30 mg/kg administered via gavage for 3 days followed by LPS treatment for 6 hrs by Western blot analysis. It is filed as functional, organism-based. The following applies: dose 7.5-30 mg/kg, time 78.0 hrs.

Calls of active or inactive are those of the source. No cut-off for these calls is given here.

A word on the inhibition: it is the relative decrease from the control value, in per cent.

As for `CC(C)(C)OC(=O)CCC(=O)Nc1nc2c(s1)C[C@]1(C)[C@H]3C[C@@H](O)[C@@H]4C([C@]5(C)CC[C@@H](C(C)(C)O)O5)CC[C@@]4(C)[C@]3(C)CC[C@H]1C2(C)C` (stereo not given in full), the viability at 24 h, 40 µM in data set [1] is more than 90%. Also, the outcome (in the data set with Mus musculus [2]; in the data set with RAW264.7 [3]; in the data set with Mus musculus [4]; in the data set on Mus musculus [5]; in data set [7]; in the data set with Mus musculus [8]) was Active. Besides, in the data set on Mus musculus [10], the result was Active. For the same compound, in the data set on RAW264.7 [6], the outcome was inactive. The inhibition at 5 µM with RAW264.7 [9] came to 30.3%.
